Measurements from PubChem BioAssay AID624300 (Southern Research Specialized Biocontainment Screening …, 2012).

Tested on: HeLa viability, CellTiter-Glo luminescence, 24 h
Experiment: HeLa cell cytotoxicity, dose response, cytotoxicity control for MgcRacGAP inhibitor project (AID 624300)

C#CCOCCOCCOCCNc1nc(N2CCN(C(=O)CCCCCCCCCCNC(=O)[C@@H](CCSC)n3cc(CCO)nn3)CC2)nc(N2CCN(C(=O)CCCCCCCCCCNC(=O)[C@H](CO)n3cc(CCCCCN)nn3)CC2)n1
CC50: 85.3 µM
